Data reported in patent publication US20240301409A1, “Chemically Modified Small Activating RNA” (RACTIGEN THERAPEUTICS, priority 2021, published 2024).

Test system: T24 cells
Assay: Cellular proliferation assay (CCK8) in T24 cells, alone and combined with Mitomycin C or valrubicin
Format: cell-based, human
Procedure, shortened: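 Cells transfected with saRNA RAG1-40-31 (0.1–50 nM) for 24 h, then Mitomycin C or valrubicin (1–10000 nM) added in paired concentrations; single-agent saRNA at 10 nM for 72 h. Viability by CCK8 absorbance at 450 nm after 1 h at 37 °C, as % of blank transfection control.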

Substance: RAG1-40-31: saRNA duplex: sense fCfCAACUCAUUCUCCAAG*U*C (SEQ ID NO 16); antisense U*A*fCfUfUGGAGAAfUGAGfUfUGG*fC*A (SEQ ID NO 12) (sense CCAACUCAUUCUCCAAGUC; antisense UACUUGGAGAAUGAGUUGGCA; 2'-F and phosphorothioate modifications; modified_base (1)..(2) (1,2)=2′-fluoro; modified_base (17)..(19) (17,18,19)=phosphorothioate (PS) backbone modification; modified_base (2)..(21) (2,3,19,20,21)=phosphorothioate (PS) backbone modification; modified_base (3)..(20) (3,4,5,12,16,17,20)=2′-fluoro)
- Relative proliferation proportion of T24 cells (RAG1-40-31 0.1 nM + MMC 1 nM): 93.6%
- Relative proliferation proportion of T24 cells (RAG1-40-31 0.1 nM + MMC 10 nM): 94.5%
- Relative proliferation proportion of T24 cells (RAG1-40-31 0.1 nM + MMC 100 nM): 63.3%
- Relative proliferation proportion of T24 cells (RAG1-40-31 0.1 nM + MMC 1000 nM): 17.6%
- Relative proliferation proportion of T24 cells (RAG1-40-31 0.1 nM + MMC 10000 nM): 5.6%
- Relative proliferation proportion of T24 cells (RAG1-40-31 0.1 nM + valrubicin 1 nm): 96.3%
- Relative proliferation proportion of T24 cells (RAG1-40-31 0.1 nM + valrubicin 10 nm): 97.8%
- Relative proliferation proportion of T24 cells (RAG1-40-31 0.1 nM + valrubicin 100 nm): 93.4%
- Relative proliferation proportion of T24 cells (RAG1-40-31 0.1 nM + valrubicin 1000 nm): 59.6%
- Relative proliferation proportion of T24 cells (RAG1-40-31 0.1 nM + valrubicin 10000 nm): 18.9%
- Relative proliferation proportion of T24 cells (RAG1-40-31 0.1 nM, Control (no MMC)): 97.9%
- Relative proliferation proportion of T24 cells (RAG1-40-31 0.1 nM, Control (no valrubicin)): 93.5%
- Relative proliferation proportion of T24 cells (RAG1-40-31 0.5 nM + MMC 1 nM): 90.1%
- Relative proliferation proportion of T24 cells (RAG1-40-31 0.5 nM + MMC 10 nM): 90.0%
- Relative proliferation proportion of T24 cells (RAG1-40-31 0.5 nM + MMC 100 nM): 59.8%
- Relative proliferation proportion of T24 cells (RAG1-40-31 0.5 nM + MMC 1000 nM): 16.8%
- Relative proliferation proportion of T24 cells (RAG1-40-31 0.5 nM + MMC 10000 nM): 5.5%
- Relative proliferation proportion of T24 cells (RAG1-40-31 0.5 nM + valrubicin 1 nm): 91.3%
- Relative proliferation proportion of T24 cells (RAG1-40-31 0.5 nM + valrubicin 10 nm): 94.3%
- Relative proliferation proportion of T24 cells (RAG1-40-31 0.5 nM + valrubicin 100 nm): 91.4%
- Relative proliferation proportion of T24 cells (RAG1-40-31 0.5 nM + valrubicin 1000 nm): 51.8%
- Relative proliferation proportion of T24 cells (RAG1-40-31 0.5 nM + valrubicin 10000 nm): 19.5%
- Relative proliferation proportion of T24 cells (RAG1-40-31 0.5 nM, Control (no MMC)): 91.7%
- Relative proliferation proportion of T24 cells (RAG1-40-31 0.5 nM, Control (no valrubicin)): 84.8%
- Relative proliferation proportion of T24 cells (RAG1-40-31 1 nM + MMC 1 nM): 81.9%
- Relative proliferation proportion of T24 cells (RAG1-40-31 1 nM + MMC 10 nM): 78.2%
- Relative proliferation proportion of T24 cells (RAG1-40-31 1 nM + MMC 100 nM): 55.6%
- Relative proliferation proportion of T24 cells (RAG1-40-31 1 nM + MMC 1000 nM): 14.7%
- Relative proliferation proportion of T24 cells (RAG1-40-31 1 nM + MMC 10000 nM): 5.4%
- Relative proliferation proportion of T24 cells (RAG1-40-31 1 nM + valrubicin 1 nm): 76.0%
- Relative proliferation proportion of T24 cells (RAG1-40-31 1 nM + valrubicin 10 nm): 71.3%
- Relative proliferation proportion of T24 cells (RAG1-40-31 1 nM + valrubicin 100 nm): 67.6%
- Relative proliferation proportion of T24 cells (RAG1-40-31 1 nM + valrubicin 1000 nm): 49.6%
- Relative proliferation proportion of T24 cells (RAG1-40-31 1 nM + valrubicin 10000 nm): 16.6%
- Relative proliferation proportion of T24 cells (RAG1-40-31 1 nM, Control (no MMC)): 85.9%
- Relative proliferation proportion of T24 cells (RAG1-40-31 1 nM, Control (no valrubicin)): 79.7%
- Relative proliferation proportion of T24 cells (RAG1-40-31 5 nM + MMC 1 nM): 37.4%
- Relative proliferation proportion of T24 cells (RAG1-40-31 5 nM + MMC 10 nM): 36.3%
- Relative proliferation proportion of T24 cells (RAG1-40-31 5 nM + MMC 100 nM): 26.0%
- Relative proliferation proportion of T24 cells (RAG1-40-31 5 nM + MMC 1000 nM): 7.7%
- Relative proliferation proportion of T24 cells (RAG1-40-31 5 nM + MMC 10000 nM): 3.1%
- Relative proliferation proportion of T24 cells (RAG1-40-31 5 nM + valrubicin 1 nm): 37.2%
- Relative proliferation proportion of T24 cells (RAG1-40-31 5 nM + valrubicin 10 nm): 33.3%
- Relative proliferation proportion of T24 cells (RAG1-40-31 5 nM + valrubicin 100 nm): 42.1%
- Relative proliferation proportion of T24 cells (RAG1-40-31 5 nM + valrubicin 1000 nm): 25.7%
- Relative proliferation proportion of T24 cells (RAG1-40-31 5 nM + valrubicin 10000 nm): 8.0%
- Relative proliferation proportion of T24 cells (RAG1-40-31 5 nM, Control (no MMC)): 42.1%
- Relative proliferation proportion of T24 cells (RAG1-40-31 5 nM, Control (no valrubicin)): 38.5%
- Relative proliferation proportion of T24 cells (RAG1-40-31 10 nM + MMC 1 nM): 19.8%
- Relative proliferation proportion of T24 cells (RAG1-40-31 10 nM + MMC 10 nM): 27.0%
- Relative proliferation proportion of T24 cells (RAG1-40-31 10 nM + MMC 100 nM): 16.7%
- Relative proliferation proportion of T24 cells (RAG1-40-31 10 nM + MMC 1000 nM): 5.3%
- Relative proliferation proportion of T24 cells (RAG1-40-31 10 nM + MMC 10000 nM): 2.5%
- Relative proliferation proportion of T24 cells (RAG1-40-31 10 nM + valrubicin 1 nm): 27.2%
- Relative proliferation proportion of T24 cells (RAG1-40-31 10 nM + valrubicin 10 nm): 23.3%
- Relative proliferation proportion of T24 cells (RAG1-40-31 10 nM + valrubicin 100 nm): 26.9%
- Relative proliferation proportion of T24 cells (RAG1-40-31 10 nM + valrubicin 1000 nm): 21.7%
- Relative proliferation proportion of T24 cells (RAG1-40-31 10 nM + valrubicin 10000 nm): 5.1%
- Relative proliferation proportion of T24 cells (RAG1-40-31 10 nM, Control (no MMC)): 22.0%
- Relative proliferation proportion of T24 cells (RAG1-40-31 10 nM, Control (no valrubicin)): 23.9%
- Relative proliferation proportion of T24 cells (RAG1-40-31 25 nM + MMC 1 nM): 15.4%
- Relative proliferation proportion of T24 cells (RAG1-40-31 25 nM + MMC 10 nM): 20.9%
- Relative proliferation proportion of T24 cells (RAG1-40-31 25 nM + MMC 100 nM): 12.4%
- Relative proliferation proportion of T24 cells (RAG1-40-31 25 nM + MMC 1000 nM): 4.1%
- Relative proliferation proportion of T24 cells (RAG1-40-31 25 nM + MMC 10000 nM): 1.9%
- Relative proliferation proportion of T24 cells (RAG1-40-31 25 nM + valrubicin 1 nm): 16.5%
- Relative proliferation proportion of T24 cells (RAG1-40-31 25 nM + valrubicin 10 nm): 20.4%
- Relative proliferation proportion of T24 cells (RAG1-40-31 25 nM + valrubicin 100 nm): 19.5%
- Relative proliferation proportion of T24 cells (RAG1-40-31 25 nM + valrubicin 1000 nm): 13.2%
- Relative proliferation proportion of T24 cells (RAG1-40-31 25 nM + valrubicin 10000 nm): 3.4%
- Relative proliferation proportion of T24 cells (RAG1-40-31 25 nM, Control (no MMC)): 13.6%
- Relative proliferation proportion of T24 cells (RAG1-40-31 25 nM, Control (no valrubicin)): 15.1%
- Relative proliferation proportion of T24 cells (RAG1-40-31 50 nM + MMC 1 nM): 20.1%
- Relative proliferation proportion of T24 cells (RAG1-40-31 50 nM + MMC 10 nM): 19.8%
- Relative proliferation proportion of T24 cells (RAG1-40-31 50 nM + MMC 100 nM): 10.8%
- Relative proliferation proportion of T24 cells (RAG1-40-31 50 nM + MMC 1000 nM): 4.2%
- Relative proliferation proportion of T24 cells (RAG1-40-31 50 nM + MMC 10000 nM): 2.1%
- Relative proliferation proportion of T24 cells (RAG1-40-31 50 nM + valrubicin 1 nm): 18.4%
- Relative proliferation proportion of T24 cells (RAG1-40-31 50 nM + valrubicin 10 nm): 18.8%
- Relative proliferation proportion of T24 cells (RAG1-40-31 50 nM + valrubicin 100 nm): 18.7%
